Earlier results in patent publication US12473303B2, “4-[[(7-aminopyrazolo[1,5-a]pyrimidin-5-yl)amino methyl]piperidin-3-ol compounds and their therapeutic use” (CARRICK THERAPEUTICS LIMITED, priority 2019, dated 2025).
“Also recorded” adds a separate entry of the source.

How the values were obtained:
Cyclin K = tested on: Cyclin K; parameters: key to Cyclin K Degrader Activity: −: No Cyclin K degradation.; +: Weak Cyclin K degradation.; ++: Moderate Cyclin K degradation.; +++: Strong Cyclin K degradation; conditions: cited from earlier work; for Cyclin K degradation (in words): literature
HeLa and A549 cells = conditions: Table 2, cited from earlier work

| Structure (SMILES) | Cyclin K degradation (in words) (Cyclin K) | Cyclin K Degrader Activity (Cyclin K; Table 2, derived from published data in HeLa and A549 cells) | IC50 (HeLa and A549 cells; derived from published data in HeLa and A549 cells, read-out: Cellular Potency IC50) [nM] | Ratio of Biochemical Potency: Cellular Potency (HeLa and A549 cells; derived from published data) |
| --- | --- | --- | --- | --- |
| CC[C@H](CO)Nc1nc(NCc2ccc(-c3ccccn3)cc2)c2ncn(C(C)C)c2n1 [CR8] | cause Cyclin K degradation |  |  |  |
| CN(C)C/C=C/C(=O)Nc1ccc(C(=O)N2CCC[C@@H](Nc3ncc(Cl)c(-c4c[nH]c5ccccc45)n3)C2)cc1 [THZ-531] | not cyclin K degraders; also recorded: did not cause cyclin K degradation | − | 210 | 0.74 |
